“And” between values parts separate entries of the source, which are not always exact repeats. Equal entries are not always repeated. “Also recorded” adds a separate entry of the source.
What was measured:
[1] = system: RB phosphorylation (Ser780, Ser608) in HT29 cells; experiment: Western blotting for RB phosphorylation in HT29 cells; format: cell-based, human; conditions: for effect on RB phosphorylation: HT29, equitoxic (3×96 h IC50) concentration, 24 h; for time of loss of RB phosphorylation after exposure: HT29, 50 μM
Description: (§1) This antibody was selected as a representative marker for all tested phosphorylation sites of RB (see Section 2). […] A general loss of RB phosphorylation is indicated by a switch from a broad band to a thin, more rapidly migrating band for total RB (see Section 2, FIG. 9).
(§2) Samples were harvested for western blotting or for cell cycle analysis by FACS. […] Since validating the original phospho-specific antibodies, a Ser608 antibody became available from Dr Sibylle Mittnacht. This site is potentially phosphorylated by CDK4/cyclin D1 and CDK2/cyclin A (Zarkowska and Mittnacht, J. Biol Chem (1997) 9:272 12738-46).

[2] = system: ERK1/2 phosphorylation in HT29 cells; experiment: Western blotting for phospho-ERK1/2 in HT29 cells; format: cell-based, human; conditions: for effect on ERK phosphorylation: HT29, equitoxic (3×96 h IC50) concentration, 24 h
[3] = system: c-FOS protein in HT29 cells; conditions: for effect on c-FOS protein level: HT29, 50 μM
[4] = system: ELK-1 phosphorylation (Ser383) in HT29 cells
cyclin D1 in HT29 cells = experiment: Western blotting for cyclin D1 expression in HT29 cells; conditions: HT29, 50 μM
[5] = system: RB phosphorylation (Ser780) in KM12 cells; conditions: KM12, 50 μM
Description: as §1, §2

[6] = system: ERK1/2 phosphorylation in KM12 cells; experiment: Western blotting for phospho-ERK1/2 in KM12 cells; format: cell-based, human
[7] = HT29, 10 μM with 50 μM R-roscovitine

| Compound | effect on RB phosphorylation [1] | effect on ERK phosphorylation [2] | time of loss of RB phosphorylation after exposure [1] | effect on cyclin D1 expression (cyclin D1 in HT29 cells) | effect on c-FOS protein level [3] | other results |
| --- | --- | --- | --- | --- | --- | --- |
| O=C1Cc2c([nH]c3ccc([N+](=O)[O-])cc23)-c2ccccc2N1 [alsterpaullone] | failed to inhibit RB phosphorylation | fails to induce; also recorded: no effect upon ERK |  |  |  |  |
| N#CC(=C(/N)Sc1ccccc1N)/C(C#N)=C(\N)Sc1ccccc1N [U0126, reference compound] |  |  |  |  |  | effect on R-roscovitine-induced ERK phosphorylation [2, 7]: prevented the induction; effect on R-roscovitine-induced increase in c-FOS [3, 7]: blocked; effect on R-roscovitine-induced ELK-1 phosphorylation [4, 7]: blocked the phosphorylation |
| CC[C@H](CO)Nc1nc(NCc2ccccc2)c2ncn(C(C)C)c2n1 (racemic) [roscovitine] |  |  | 24 h | decreased levels | increased levels |  |
| CC(C)[C@H](CO)Nc1nc(Nc2cccc(Cl)c2)c2ncn(C(C)C)c2n1 [purvalanol A] | inhibited RB phosphorylation | fails to induce; also recorded: failed to induce ERK phosphorylation |  |  |  |  |
| CN1CC[C@H](c2c(O)cc(O)c3c(=O)cc(-c4ccccc4Cl)oc23)[C@H](O)C1 [flavopiridol] | failed to inhibit RB phosphorylation | fails to induce; also recorded: no effect upon ERK |  |  |  |  |
| CC[C@H](CO)Nc1nc(NCc2ccccc2)c2ncn(C(C)C)c2n1 [R-roscovitine, 2-(R)-(1-ethyl-2-hydroxyethylamino)-6-benzylamino-9-isopropylpurine] | inhibited RB phosphorylation | induced ERK phosphorylation | 12 to 24 h and 24 h | inhibited the expression | induction of c-FOS protein | time of loss of RB phosphorylation after exposure [5]: 12 to 24 h; kinetics of induction of ERK phosphorylation compared with HT29 ([6]; KM12, 50 μM time course): slower kinetics; effect on phosphorylated ERK1/2 ([6]; KM12, increasing concentrations, 24 h exposure): increase of phosphorylated ERK1/2; phospho-ERK1/2 level at 24 h ([2]; HT29, 50 μM time course): remaining above basal levels; time of onset of induction of ERK phosphorylation ([2]; HT29, 50 μM time course): 1 h; time at which induction of ERK phosphorylation was observed ([2]; HT29, 50 μM, experiment with U0126 (FIG. 5B)): 4 to 24 h; effect on phosphorylated ERK1/2 ([2]; HT29, increasing concentrations, 24 h exposure): increase of phosphorylated ERK1/2; time at which an increase of c-FOS protein was detected ([3]; HT29, 50 μM time course): 12 to 24 h; effect on ELK-1 phosphorylation ([4]; HT29, 50 μM, after 4 h): strong induction |
